# Results reported in patent US11026944B2, “Compositions and methods for treating insomnia” (Eisai R&D Management Co., Ltd., priority 2014, dated 2021).
# Where two headings read alike, the source gives them in different places.
# Key:
# [1] = Single dose study (001 Study) Part A: plasma PK of compound A; format: in vivo; settings: human, healthy subjects (Part A); for AUC from 0 to 24 h / AUC(0-inf) / AUC(0-t) / Cmax / half-life / Tmax: plasma, po; for AUC from 0 to 24 h: read-out: AUC(0-24) Mean(SD); for AUC(0-inf): read-out: AUC(0-inf) Mean(SD); for AUC(0-t): read-out: AUC(0-t) Mean(SD); for Cmax: read-out: Cmax Mean(SD); for half-life: read-out: t1/2 Median (converted); for Tmax: read-out: tmax Median; for concentration at 9 h: read-out: C9 Mean(SD)
# Source text: This was a randomized, double-blind, placebo- and active-controlled, sequential, single-dose study. The study consisted of two parts, Part A (healthy subjects) and Part B (otherwise healthy subjects with primary insomnia).
# For Part A, 64 healthy subjects were enrolled into cohorts sequentially in a gradual dose escalation manner, to receive either compound A or placebo, and stratified by gender. Each cohort comprised six compound A- and two placebo-treated subjects. All study drugs were administered as single doses using one or more compound A-capsules or compound A-matched placebo capsules due to the test dose. After screening, subjects underwent baseline procedures and randomization on Day-2. Subjects were dosed on Day 1 in the morning after an overnight fast, 1 hour after lights-on. PK blood samples were collected at prespecified timepoints, and PD assessments were performed. Subjects were administered assessments on Day 1 predose and every 2 hours from 2 to 12 hours postdose, and each morning on Days 2 to 6.
# For subjects in Part A, Blood samples for determination of plasma concentrations of compound A were collected on Day 1 predose and at 0.25 (15 minutes), 0.5 (30 minutes), 1, 2, 3, 4, 5, 6, 9, 12, 24, 48, 72, 96, 120, 168, and 240 hours after oral administration of compound A, but collected up to 72 hours in the first three cohorts (1, 2.5 and 5 mg compound A groups). PK samples were collected preferentially via an indwelling venous catheter for the first 12 hours and by direct venipuncture thereafter.
# Plasma concentrations of compound A were measured using a validated liquid chromatography-mass spectrometry/mass spectrometry (LC-MS/MS) assay.
# [2] = test system: subjects with insomnia; assay: 201 Study: population PK and PK/PD analysis; format: in vivo, human
# Method: During the Treatment period, blood samples for plasma concentrations of compound A were obtained within 30 minutes predose each night (except on Day 1) in the clinic and within 1 hour of morning waketime following each night spent in the clinic. Plasma concentrations of compound A were measured using a validated liquid chromatography-tandem mass spectrometry (LC-MS/MS) assay.
# The PK/PD Analysis Set was used to evaluate relationships between compound A concentrations and selected PD parameters. The relationships between exposure to compound A and selected PD endpoints (eg. KSS, DSST, RTI) were explored graphically and could be followed by population PK/PD modeling. The relationship between plasma concentrations of compound A at predose (trough), and within 1 hour after morning waketime, and selected PD parameters, was analyzed using Nonmem version 7.2 or later.
# Measures of the PD effects of compound A included KSS, RTI, DSST, the WFB (RTI, Rapid Visual Processing [RVP], and Spatial Span [SSP]), POMS, melatonin levels, and the DLMO. Due to high variability and non-normal distribution in change from baseline of LPS, it was not possible to reliably model the concentration-response relationship between compound A PK parameters and LPS. Nonetheless, higher plasma concentrations of compound A were associated with larger decreases in LPS, up to approximately 10 ng/mL. This finding was consistent with the efficacy results, where LPS was decreased at doses of 2.5 mg and higher. […] When modeled, WASO data were best described by log-linear relationships with the maximum observed concentration (Cmax). […] However, subjects whose compound A plasma concentrations were greater than 20 ng/mL at 1 hour after waking had slightly greater increases on the KSS and a higher incidence of AEs of somnolence. This concentration is predicted to be achieved by most subjects receiving doses greater than 10 mg.
# [3] = Single daily dose PK in human subjects (summary statements); format: in vivo; settings: plasma, oral; for Cmax: read-out: mean maximum plasma concentration (Cmax); for half-life: read-out: mean t1/2 (converted); for Tmax: read-out: mean time to maximum plasma concentration (tmax)
structure (smiles),measurement,setting,value
"Cc1ncc(OC[C@@]2(c3cccc(F)c3)C[C@H]2C(=O)Nc2ccc(F)cn2)c(C)n1 [Compound A, (1R,2 S)-2-(((2,4-dimethylpyrimidin-5-yl)oxy)methyl)-2-(3-fluorophenyl)-N-(5-fluoropyridin-2-yl) cyclopropanecarboxamide]",AUC from 0 to 24 h,"[1]; 1 mg, single oral 1 mg",~17.2 ng·h/mL
same,AUC(0-inf),"[1]; 1 mg, single oral 1 mg",~19.8 ng·h/mL
same,AUC(0-t),"[1]; 1 mg, single oral 1 mg",~19.1 ng·h/mL
same,Cmax,"[1]; 1 mg, single oral 1 mg",~5.3 ng/mL
same,half-life,"[1]; 1 mg, single oral 1 mg",~12.7 h
same,Tmax,"[1]; 1 mg, single oral 1 mg",~1 h
same,AUC from 0 to 24 h,"[1]; 2.5 mg, single oral 2.5 mg",56.8 ng·h/mL
same,AUC(0-inf),"[1]; 2.5 mg, single oral 2.5 mg",79.7 ng·h/mL
same,AUC(0-t),"[1]; 2.5 mg, single oral 2.5 mg",80.2 ng·h/mL
same,Cmax,"[1]; 2.5 mg, single oral 2.5 mg",15.9 ng/mL
same,half-life,"[1]; 2.5 mg, single oral 2.5 mg",30.1 h
same,Tmax,"[1]; 2.5 mg, single oral 2.5 mg",1.01 h
same,AUC from 0 to 24 h,"[1]; 5 mg, single oral 5 mg",94.6 ng·h/mL
same,AUC(0-inf),"[1]; 5 mg, single oral 5 mg",149 ng·h/mL
same,AUC(0-t),"[1]; 5 mg, single oral 5 mg",128 ng·h/mL
same,Cmax,"[1]; 5 mg, single oral 5 mg",22.7 ng/mL
same,half-life,"[1]; 5 mg, single oral 5 mg",31.3 h
same,Tmax,"[1]; 5 mg, single oral 5 mg",1.55 h
same,AUC from 0 to 24 h,"[1]; 10 mg, single oral 10 mg",159 ng·h/mL
same,AUC(0-inf),"[1]; 10 mg, single oral 10 mg",311 ng·h/mL
same,AUC(0-t),"[1]; 10 mg, single oral 10 mg",284 ng·h/mL
same,Cmax,"[1]; 10 mg, single oral 10 mg",36 ng/mL
same,half-life,"[1]; 10 mg, single oral 10 mg",56.1 h
same,Tmax,"[1]; 10 mg, single oral 10 mg",1 h
same,AUC from 0 to 24 h,"[1]; 25 mg, single oral 25 mg",654 ng·h/mL
same,AUC(0-inf),"[1]; 25 mg, single oral 25 mg",1540 ng·h/mL
same,AUC(0-t),"[1]; 25 mg, single oral 25 mg",1450 ng·h/mL
same,Cmax,"[1]; 25 mg, single oral 25 mg",108 ng/mL
same,half-life,"[1]; 25 mg, single oral 25 mg",65.5 h
same,Tmax,"[1]; 25 mg, single oral 25 mg",2.01 h
same,AUC from 0 to 24 h,"[1]; 50 mg, single oral 50 mg",1110 ng·h/mL
same,AUC(0-inf),"[1]; 50 mg, single oral 50 mg",2150 ng·h/mL
same,AUC(0-t),"[1]; 50 mg, single oral 50 mg",2080 ng·h/mL
same,Cmax,"[1]; 50 mg, single oral 50 mg",168 ng/mL
same,half-life,"[1]; 50 mg, single oral 50 mg",51.9 h
same,Tmax,"[1]; 50 mg, single oral 50 mg",2.53 h
same,AUC from 0 to 24 h,"[1]; 100 mg, single oral 100 mg",1930 ng·h/mL
same,AUC(0-inf),"[1]; 100 mg, single oral 100 mg",4740 ng·h/mL
same,AUC(0-t),"[1]; 100 mg, single oral 100 mg",4490 ng·h/mL
same,Cmax,"[1]; 100 mg, single oral 100 mg",264 ng/mL
same,half-life,"[1]; 100 mg, single oral 100 mg",59.8 h
same,Tmax,"[1]; 100 mg, single oral 100 mg",3 h
same,AUC from 0 to 24 h,"[1]; 200 mg, single oral 200 mg",4080 ng·h/mL
same,AUC(0-inf),"[1]; 200 mg, single oral 200 mg",10500 ng·h/mL
same,AUC(0-t),"[1]; 200 mg, single oral 200 mg",9840 ng·h/mL
same,Cmax,"[1]; 200 mg, single oral 200 mg",431 ng/mL
same,half-life,"[1]; 200 mg, single oral 200 mg",65.2 h
same,Tmax,"[1]; 200 mg, single oral 200 mg",3 h
same,concentration at 9 h,[1]; plasma at 9 h after single oral 1 mg,0.384 ng/mL
same,concentration at 9 h,[1]; plasma at 9 h after single oral 2.5 mg,1.54 ng/mL
same,concentration at 9 h,[1]; plasma at 9 h after single oral 5 mg,2.68 ng/mL
same,concentration at 9 h,[1]; plasma at 9 h after single oral 10 mg,4.6 ng/mL
same,concentration at 9 h,[1]; plasma at 9 h after single oral 25 mg,21.9 ng/mL
same,concentration at 9 h,[1]; plasma at 9 h after single oral 50 mg,39.3 ng/mL
same,concentration at 9 h,[1]; plasma at 9 h after single oral 100 mg,86 ng/mL
same,concentration at 9 h,[1]; plasma at 9 h after single oral 200 mg,199 ng/mL
same,"next-day residual sleepiness (KSS, DSST, RTI) vs time-matched plasma concentrations",[2]; PK/PD analyses,did not show any apparent relationship
same,exposure-response relationship for WASO,[2]; PK/PD model,log-linear relationship with Cmax
same,plasma concentration up to which higher concentrations were associated with larger decreases in LPS,[2]; asymptote above this concentration,approximately 10 ng/mL
same,plasma concentration associated with slightly greater increases on the KSS and higher incidence of AEs of somnolence,[2]; at 1 hour after waking,greater than 20 ng/mL
same,Apparent clearance,[2]; population PK,independent of dose and time
same,PK model,[2]; population PK,2-compartment model with elimination from the central compartment
same,doses predicted to achieve plasma concentration greater than 20 ng/mL at 1 hour after waking in most subjects,[2]; predicted,greater than 10 mg
same,AUC(0-t),"[3]; 2.5 mg, single 2.5 mg daily dose, read-out: mean AUC(0-24)",57 to 60 ng·h/mL
same,AUC(0-t),"[3]; 2.5 mg, single 2.5 mg daily dose, read-out: mean AUC(0-t)",80 to 95 ng·h/mL
same,AUC(0-t),"[3]; 5 mg, single 5 mg daily dose, read-out: mean AUC(0-24)",95 to 110 ng·h/mL
same,AUC(0-t),"[3]; 5 mg, single 5 mg daily dose, read-out: mean AUC(0-t)",~128 ng·h/mL
same,AUC(0-t),"[3]; 10 mg, single 10 mg daily dose, read-out: mean AUC(0-24)",160 to 190 ng·h/mL
same,AUC(0-t),"[3]; 10 mg, single 10 mg daily dose, read-out: mean AUC(0-t)",280 to 510 ng·h/mL
same,AUC(0-inf),[3]; single 2.5 mg daily dose,80 to 103 ng·h/mL
same,Cmax,[3]; single 2.5 mg daily dose,10 to 18 ng/mL
same,half-life,[3]; single 2.5 mg daily dose,30 to 37 h
same,Tmax,[3]; single 2.5 mg daily dose,1 to 2 h
same,AUC(0-inf),[3]; single 5 mg daily dose,~150 ng·h/mL
same,Cmax,[3]; single 5 mg daily dose,19 to 23 ng/mL
same,half-life,[3]; single 5 mg daily dose,~31 h
same,Tmax,[3]; single 5 mg daily dose,1 to 2 h
same,AUC(0-inf),[3]; single 10 mg daily dose,310 to 530 ng·h/mL
same,Cmax,[3]; single 10 mg daily dose,30 to 58 ng/mL
same,half-life,[3]; single 10 mg daily dose,56 to 60 h
same,Tmax,[3]; single 10 mg daily dose,1 to 3.25 h
